{"source": "patent US10799603B2", "about": "“Kinase and/or phosphatase sensing via hydroxyquinoline-sensitized chelates” (Massachusetts Institute of Technology, priority 2018, dated 2020)", "test": "Eu(III) titration, time-resolved luminescence, determination of Eu(III) dissociation constants", "assay_type": "binding", "conditions": "5 micromolar peptide, 30° C., 50 mM HEPES pH 7.5, 100 mM NaCl; averages of three separate experiments", "procedure": "The luminescence experiments were conducted as follows. Time-resolved emission measurements were made with a CLARIOstar® spectrofluorimeter. The spectra were recorded between 410 and 700 nm, and all measurements were made using the following settings: excitation wavelength 360 nm; delay time 0.4 ms; stepwidth 1.0 nm; emission bandwidth 8 nm; gain: 3000; focal height […]; 20 flashes per well. All of the spectra were corrected for background luminescence by subtracting a blank scan of the solvent solution.\nDetermination of Eu(III) dissociation constants (KD). Eu(III) titrations were performed at 30° C. in a buffer containing 50 mM HEPES buffer, pH 7.5, 100 mM NaCl, and 5 micromolar of the of the phosphopeptide Sox-P (5 micromolar) or the corresponding unphosphorylated biosensor Sox-OH (5 micromolar) in a total volume of 200 microliters. Aliquots of EuCl3 stock solutions were added (for the final EuCl3 concentration in the well to be in the range of approximately 2.5-6000 micromolar) and the data was recorded in the fluorometer. Data were fit with the program GraFit 7. The reported values are averages of three separate experiments.", "note": "Square brackets hold non-standard residues; d marks the D form. Ends that are not written are not given here. * marks the point of attachment. Sox = hydroxyquinoline on cysteine, CN(C)S(=O)(=O)c1ccc(O)c2nc(C*)ccc12; pT = C[C@@H](OP(=O)(O)O)[C@H](N)C(=O)O", "data": [{"substance": "LVEPLT*PC(Sox)GEA (LVEPL[pT]PC(Sox)GEA) [Sox-P, phosphopeptide with Sox hydroxyquinoline attached to the S of the cysteine]", "values": [{"measurement": "Kd", "result": 18.4, "unit": "µM"}]}, {"substance": "LVEPLTPC(Sox)GEA [Sox-OH, unphosphorylated biosensor peptide with Sox hydroxyquinoline attached to the S of the cysteine]", "values": [{"measurement": "Kd", "result": 1570, "unit": "µM"}]}]}
